Data from PMC5382279, “Glutaredoxin catalysis requires two distinct glutathione interaction sites” (Nature Communications, 2017).
Residue numbers refer to the chain shown, from its start. In names and notes the source's numbering stands. Several values for one entry are separate records, joined by “and”; a condition that tells them apart may be missing. Equal values may be shown once. Numbered stars: 1 amine (or outer) side, 2 acyl side, 3 side chain; on linkers, the order of the positions; unused ones are H or OH. Square brackets hold non-standard residues; d marks the D form. Peptide text beside a SMILES is read from it. γGlu = O=C(O)[C@H](CCC(=O)[*:2])N[*:1]; Abu = CC[C@H](N)C(=O)O

What was measured:
ScGrx7 [1] = molecular target: T1, ScGrx7 (Saccharomyces cerevisiae, UniProt P38068, K105A); test: coupled NADPH/glutathione reductase assay, […] nm, GSSCys assay; format: biochemical; conditions: varied GSSCys 25-200 uM at fixed GSH 0.05-1.0 mM; 0.1 M Tris/HCl, 1 mM EDTA, pH 8.0, 25 C; ping-pong
T1 construct: gene GRX7; N-terminal MRGS(H)6 tag kept, E. coli XL1-Blue, pQE30/SCGRX7 double stop-codon construct
T1 sequence (P38068 33-203 K105A): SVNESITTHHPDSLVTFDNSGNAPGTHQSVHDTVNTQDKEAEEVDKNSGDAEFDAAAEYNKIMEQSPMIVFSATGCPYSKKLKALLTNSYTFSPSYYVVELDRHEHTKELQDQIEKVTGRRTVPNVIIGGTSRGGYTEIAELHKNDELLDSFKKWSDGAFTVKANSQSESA

ScGrx7 [2] = molecular target: T2, ScGrx7 (Saccharomyces cerevisiae, UniProt P38068, E170K); test: as above; format: biochemical; conditions: varied GSSCys 25-200 uM at fixed GSH 0.05-1.0 mM; 0.1 M Tris/HCl, 1 mM EDTA, pH 8.0, 25 C; ping-pong
T2 construct: gene GRX7; N-terminal MRGS(H)6 tag kept, E. coli XL1-Blue, pQE30/SCGRX7 double stop-codon construct
T2 sequence (P38068 33-203 E170K): T1 sequence (P38068 33-203 K105A) with A73K, E138K

ScGrx7 [3] = molecular target: T3, ScGrx7 (Saccharomyces cerevisiae, UniProt P38068); test: as above; format: biochemical; conditions: varied GSSCys 25-200 uM at fixed GSH 0.05-1.0 mM; 0.1 M Tris/HCl, 1 mM EDTA, pH 8.0, 25 C; ping-pong
T3 construct: gene GRX7; N-terminal MRGS(H)6 tag kept, E. coli XL1-Blue, pQE30/SCGRX7 double stop-codon construct
T3 sequence (P38068 33-203): T1 sequence (P38068 33-203 K105A) with A73K

ScGrx7 [4] = molecular target: T4, ScGrx7 (Saccharomyces cerevisiae, UniProt P38068, E170A); test: as above; format: biochemical; conditions: varied GSSCys 25-200 uM at fixed GSH 0.05-1.0 mM; 0.1 M Tris/HCl, 1 mM EDTA, pH 8.0, 25 C; ping-pong
T4 construct: gene GRX7; N-terminal MRGS(H)6 tag kept, E. coli XL1-Blue, pQE30/SCGRX7 double stop-codon construct
T4 sequence (P38068 33-203 E170A): T1 sequence (P38068 33-203 K105A) with A73K, E138A

ScGrx7 [5] = molecular target: T5, ScGrx7 (Saccharomyces cerevisiae, UniProt P38068, K105E); test: as above; format: biochemical; conditions: varied GSSCys 25-200 uM at fixed GSH 0.05-1.0 mM; 0.1 M Tris/HCl, 1 mM EDTA, pH 8.0, 25 C; ping-pong
T5 construct: gene GRX7; N-terminal MRGS(H)6 tag kept, E. coli XL1-Blue, pQE30/SCGRX7 double stop-codon construct
T5 sequence (P38068 33-203 K105E): T1 sequence (P38068 33-203 K105A) with A73E

ScGrx7 [6] = molecular target: T3, ScGrx7; test: coupled NADPH/glutathione reductase assay, […] nm, HEDS assay; format: biochemical; conditions: varied HEDS 90-920 uM at fixed GSH 0.3-1.5 mM; 0.1 M Tris/HCl, 1 mM EDTA, pH 8.0, 25 C; sequential pattern
ScGrx7 [7] = molecular target: T3, ScGrx7; test: inhibition of HEDS or GSSEtOH assay; format: biochemical; conditions: up to 10 mM inhibitor; weak competitive inhibitor; HEDS or GSSEtOH as disulfide substrate with GSH
[8] = substrate: OCCSSCCO; test: purified protein, by the assay type; set-up: HEDS assay, GR-coupled NADPH consumption at 340 nm, steady-state kinetics; conditions: pH 8.0; 25.0 °C
Procedure: (§1) Both assays were performed with 0.1 mM NADPH and 1 U ml^−1 GR. Final concentrations of K105X and E170X mutants were 10 nM to 1.5 μM and 5–20 nM, respectively. Final concentrations of DM, D90A and K26A were 5–10 nM, 5–12.5 nM and 50–100 nM, respectively. […] NADPH, GSH and GR were mixed in assay buffer before Grx was added and a baseline was recorded for 30 s. […] For the HEDS assays, either GSH was varied between 100 μM and 1.5 mM for ScGrx (or 250 μM and 3.0 mM for PfGrx) at fixed concentrations of HEDS (0.18, 0.37, 0.55 and 0.74 mM) or HEDS was varied between 90 and 920 μM at fixed concentrations of GSH (0.3, 0.5, 1 and 1.5 mM for ScGrx7 or 0.25, 0.5, 1 and 2 mM for PfGrx). NADPH, GSH and HEDS were preincubated in assay buffer for 2 min before GR was added and a baseline was recorded for 30 s. All HEDS assays were started by the addition of enzyme. Kinetic data were analysed in Excel and SigmaPlot 12 by non-linear and linear regression according to Michaelis–Menten, Lineweaver–Burk, Eadie–Hofstee and Hanes theory[11][12][18]. […] All data points are the mean ± S.D. from at least three independent replicates and were averaged from at least three independent protein purification experiments and subsequently plotted and fitted in Sigmaplot 12.5 according to Michaelis-Menten, Lineweaver-Burk, Eadie-Hofstee and Hanes theory (the latter two plots are not shown).

[9] = substrate: N[C@@H](CCC(=O)N[C@@H](CS)C(=O)NCC(=O)O)C(=O)O; test: purified protein, by the assay type; set-up: HEDS assay, GR-coupled NADPH consumption at 340 nm, steady-state kinetics; conditions: pH 8.0; 25.0 °C
Procedure: as §1

[10] = substrate: OCCSSCCO; test: purified protein, by the assay type; set-up: HEDS oxidoreductase assay, glutathione reductase coupled, NADPH consumption at 340 nm, pH 8.0, 25 °C; conditions: pH 8.0; 25.0 °C
Procedure: (§2) Both assays were performed with 0.1 mM NADPH and 1 U ml^−1 GR. Final concentrations of K105X and E170X mutants were 10 nM to 1.5 μM and 5–20 nM, respectively. Final concentrations of DM, D90A and K26A were 5–10 nM, 5–12.5 nM and 50–100 nM, respectively. […] NADPH, GSH and GR were mixed in assay buffer before Grx was added and a baseline was recorded for 30 s. […] For the HEDS assays, either GSH was varied between 100 μM and 1.5 mM for ScGrx (or 250 μM and 3.0 mM for PfGrx) at fixed concentrations of HEDS (0.18, 0.37, 0.55 and 0.74 mM) or HEDS was varied between 90 and 920 μM at fixed concentrations of GSH (0.3, 0.5, 1 and 1.5 mM for ScGrx7 or 0.25, 0.5, 1 and 2 mM for PfGrx). NADPH, GSH and HEDS were preincubated in assay buffer for 2 min before GR was added and a baseline was recorded for 30 s. All HEDS assays were started by the addition of enzyme. Kinetic data were analysed in Excel and SigmaPlot 12 by non-linear and linear regression according to Michaelis–Menten, Lineweaver–Burk, Eadie–Hofstee and Hanes theory[11][12][18]. […] All data points are the mean ± S.D. from at least three independent replicates and were averaged from at least three independent protein purification experiments and subsequently plotted and fitted in Sigmaplot 12.5 according to Michaelis-Menten, Lineweaver-Burk, Eadie-Hofstee and Hanes theory (the latter two plots are not shown). […] All data points are the mean ± S.D. from at least three independent replicates and were averaged from at least three independent protein purification experiments and subsequently plotted and fitted in Sigmaplot 12.5 according to Michaelis-Menten, Lineweaver-Burk, Eadie-Hofstee and Hanes theory (the latter two plots are not shown).

[11] = substrate: N[C@@H](CCC(=O)N[C@@H](CS)C(=O)NCC(=O)O)C(=O)O; test: purified protein, by the assay type; set-up: HEDS oxidoreductase assay, glutathione reductase coupled, NADPH consumption at 340 nm, pH 8.0, 25 °C; conditions: pH 8.0; 25.0 °C
Procedure: as §2

**Q.** `N[C@@H](CCC(=O)N[C@@H](CSSC[C@H](N)C(=O)O)C(=O)NCC(=O)O)C(=O)O` [GSSCys] was tested. Which Km app (ScGrx7 [1]) did it give?
**A.** Its Km app is “all K105X mutants had increased Km ^app(GSSCys) values”.

**Q.** And the Km app (ScGrx7 [2])?
**A.** Its Km app is “Km ^app values for GSSCys and GSH were reciprocally doubled and halved, respectively”.

**Q.** What about the Km app (ScGrx7 [3]) of the same molecule?
**A.** The Km app was “Selected kcat ^app and Km ^app values of ScGrx7 wild-type enzyme and K105X mutants”.

**Q.** And the Km app (ScGrx7 [4])?
**A.** Its Km app is “Km ^app values for GSSCys and GSH were reciprocally doubled and halved, respectively”.

**Q.** What about the Km app (ScGrx7 [5]) of the same molecule?
**A.** Its Km app is “all K105X mutants had increased Km ^app(GSSCys) values”.

**Q.** Which Km app (ScGrx7 [6]) does the source give for `OCCSSCCO` [HEDS] here?
**A.** Its Km app is “Selected kcat ^app and Km ^app values of ScGrx7 wild-type enzyme and K105X mutants”.

**Q.** `CC[C@H](NC(=O)CC[C@H](N)C(=O)O)C(=O)NCC(=O)O` [ophthalmic acid, L-γ-glutamyl-L-α-aminobutyrylglycine] (γGlu-[Abu]-Gly-OH) was tested. Which “% reduction of reaction velocity at up to 10 mM” value (ScGrx7 [7]) did it give?
**A.** Its value is 10–20%.

B1: ScGrx7 (Saccharomyces cerevisiae S288C) (protein)
chain: T1 sequence (P38068 33-203 K105A) with A73K
notes: N-terminal MRGS(H)6 tag kept, E. coli XL1-Blue, pQE30/SCGRX7 double stop-codon construct
**Q.** Which Km [8] does the source give for B1 here?
**A.** The Km was 2050 ± 200 µM and 1820 ± 300 µM and 3720 ± 1100 µM.

**Q.** And the Km [9]?
**A.** Its Km is 1210 ± 200 µM and 1230 ± 150 µM and 1120 ± 110 µM.

**Q.** What about the Km [10] of the same molecule?
**A.** Its Km is 2300 ± 700 µM and 1500 ± 200 µM.

**Q.** What about the Km [11] of the same molecule?
**A.** The Km was 1200 ± 100 µM and 2300 ± 500 µM.
